Assay results from publication PMC8763243, “Synthesis of Novel Suramin Analogs With Anti-Proliferative Activity via FGF1 and FGFRD2 Blockade” (Frontiers in Chemistry, 2022).
“And” between values parts separate entries of the source, which are not always exact repeats. Identical values can stand only once.

Columns and labels:
[1] = WST-1 assay, cytotoxicity in tumorigenic cells; assay type: cell-based, human; conditions: human; MCF-7 cells, 48 h, SigmaPlot; read-out: estimated IC50 (cytotoxicity)
Procedure: (§1) The water-soluble tetrazolium salt (WST-1) assay was performed to assess the effects of the compounds on cell proliferation and cytotoxicity. DMEM/F12 containing 10% FBS was used for the cell culture, and incubation was performed in 5% CO2 till the logarithmic growth phase was achieved. On the day before the experiment, the cells were trypsinized and seeded in a 96-well plate at a density of 5000 cells/well. For the FGF1-stimulated cell proliferation assay, the cells were then incubated for 24 h in a serum-free medium containing 0.1% bovine serum albumin (BSA). Serum-starved cells with or without a specified concentration of suramin, 14, 15, 17, 18, 21, and FGFRD2 were stimulated with 100 nM of FGF1 again for 48 h. For the purpose of the cytotoxicity assay, the cells were treated with an increased concentration of suramin and compounds 14, 17, 15, 18, and 21 (Figure 6) for 48 h. Also, 1/10 of the volume of WST-1 cell reagent was inserted in every well and maintained at 37°C for another 4 h before harvesting. There was gentle agitation of the medium in the cell culture plate for 10 min using a shaker. A Synergy 2 microplate reader (BioTek Instruments, Inc., VT, United States) was used to measure the absorbance at 450 nm. The relative absorbance was compared with the control treatment to determine the relative cell number.
(§2) […] […] The reason for the higher cytotoxicity was the presence of methyl groups on the suramin structure ([Martello et al., 2001]).
(§3) Suramin-induced neuropathy may depend on the effects on calcium (Ca^2+) homeostasis as a potential pathological mechanism, and the full or partial positive charge of the element when directly attached to the ring at each of the sulphonic groups (HSO3). These interactions exert a moderate to strong electron-withdrawing inductive effect, which may be responsible for the observed suramin cytotoxicity ([Prasetyaningrum et al., 2018]; [Von Der Ahe et al., 2018]). The cytotoxicity of the synthesized analogs was lower as there were methyl groups and no sulfonic acid groups attached to the suramin backbone. The IC50 values of the synthesized compounds in MCF-7 breast cancer cells were analyzed using SigmaPlot software.

MCF-7 cells [2] = experiment: WST-1 assay, cytotoxicity in tumorigenic cells; assay type: cell-based, human; conditions: for Mean (Blank 450) / Fold (mean) / Blank 450 / Fold: S8; for Fold (mean): relative to control; for Blank 450: single replicate absorbance; for Fold: single replicate relative to control; for cytotoxicity compared with suramin: MCF-7 cells, 1-100 µM, 48 h, especially at concentrations higher than 10 µM
Procedure: as §1, §2, §3

FGF1 = target: T1, FGF1 (Homo sapiens, UniProt P05230); experiment: Fluorescence spectroscopy binding constant of FGF1 and suramin derivatives; conditions: fluorescence quenching, 5 µM FGF1, non-linear regression with Stern–Volmer equation, pH 6.5
T1 construct: made in house
T1 sequence (P05230 whole entry): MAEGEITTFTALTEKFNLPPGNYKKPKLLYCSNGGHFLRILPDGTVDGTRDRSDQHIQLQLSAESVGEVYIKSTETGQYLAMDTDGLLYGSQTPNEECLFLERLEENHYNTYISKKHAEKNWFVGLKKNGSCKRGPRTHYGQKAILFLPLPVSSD
Procedure: The binding constant Kd was calculated for FGF1 and the five derivatives in a buffer containing 10% D2O, 50 mM AMS, 20 mM phosphate buffer, and 50 mM NaCl at pH 6.5 using an F-2500 Hitachi fluorescence spectrophotometer.
[…] has tremendous significance for biochemical application because it provides valuable knowledge about the probability of quencher activity. The anti-mitogenic activity of the five compounds was achieved by the same mechanism in which suramin inhibits the mitogenic activity of FGF1. A non-linear regression curve was plotted for the relative intensities of activity versus drug concentration using the Stern–Volmer equation (Eq. 1). log(F0−F)/F=logK+nlog[Q], (1)
where F0 represents the fluorescence intensity in the absence of the compounds, and F represents the fluorescence intensity in the presence of the [Q] concentration of the compounds.
Increasing concentrations of these five suramin derivatives were added to a solution containing 5 µM FGF1. A reduction in the fluorescence intensity was reported for all five suramin derivatives. The Stern–Volmer equation was used to calculate the binding constant between FGF1 and compounds 14, 15, 17, 18, and 21 for relative intensities versus the total concentration in a non-linear regression curve.

[3] = Exposure stability study by 1H NMR in DMSO-d6 and D2O; assay type: physicochemical; conditions: 0.017 mol/L in DMSO-d6 and D2O, 11 days
Procedure: The stability of the compounds was verified in both aqueous and DMSO solutions. In aqueous medium, the stability of the suramin derivatives 15 and 18 were considered to verify the stability. A control experiment consisting of a DMSO-d 6 (0.017 mol/L) solution of 15 and a D2O solution of 15 (0.017 mol/L) was maintained on the laboratory bench. All experiments were performed in NMR tubes containing 0.017 mol/L solutions of compounds 15 and 18 in DMSO-d 6 and D2O, respectively. NMR spectra were recorded over 11 days (initially daily for 1 week).
10 mg of the newly synthesized compound was diluted in 500 µL DMSO-d 6 under investigation in a 5-mm NMR tube. The procedure was maintained as it is for 11 days in the solution. The ^1H NMR spectrum was recorded daily for 4 days up to 11 days.
10 mg of the novel compound was diluted in 500 µL D2O under investigation in a 5-mm NMR tube. The procedure was maintained as it is for 11 days in the solution. The ^1H NMR spectrum was recorded daily for 4 days up to 11 days.

[4] = WST-1 assay, cytotoxicity in normal breast epithelial cell line (non-tumorigenic); assay type: cell-based; conditions: human; non-tumorigenic MCF-10A cells; read-out: estimated IC50 (cytotoxicity)
Procedure: as §1
In order to gain some insight about the selectivity of the compounds between tumorigenic and non-tumorigenic cells, the cytotoxicity was also being evaluated against normal breast cell lines by examining the cytotoxicity of suramin and its derivatives, compounds 15, 18, and 21, in a normal breast epithelial cell line (non-tumorigenic), MCF-10A. […] Compared to their cytotoxicity in tumorigenic MCF-7 cells (Figure 6), the estimated IC50 values in MCF-10A were higher than those in MCF-7 cells. […] However, the estimated IC50 value of suramin and its derivatives in both non-tumorigenic MCF-10A and tumorigenic MCF-7 cells were over 100 μM. The effective concentrations of suramin and its derivatives to attenuate FGF1-stimulated cell proliferation in MCF-7 cells were around 1 μM (Figure 5), which is non-toxic concentration to both MCF-7 cells and MCF-10A cells. […] Therefore, in addition to the specificity of each drug, the selectivity of suramin and its derivatives to disrupt the FGF1/FGFR-mediated breast cancer growth might rely on the overexpression or amplification of FGFR2 in breast cancer cells, but not in normal cells, and the secreted FGF1 ligand by autocrine or paracrine effects from cancer cells or their surrounding stroma cells or adipocytes (tumor microenvironment). The statistical data for the cytotoxicity are shown in Supplementary Figure S8.

MCF-7 cells [5] = experiment: WST-1 assay, FGF1-stimulated cell proliferation; assay type: cell-based, human; conditions: serum-starved MCF-7, 100 nM FGF1, 100 nM, 500 nM and 1 µM of test substance, 48 h
Procedure: as §1
Cell proliferation was measured using the WST-1 assay. […]

O=C(Nc1ccc(C(=O)Nc2ccc(C(=O)Nc3cc(S(=O)(=O)O)cc4cc(S(=O)(=O)O)cc(S(=O)(=O)O)c34)cc2)cc1)Nc1ccc(C(=O)Nc2ccc(C(=O)Nc3cc(S(=O)(=O)O)cc4cc(S(=O)(=O)O)cc(S(=O)(=O)O)c34)cc2)cc1 [Compound 18, Sodium 8,8'-((4,4'-((4,4'-(carbonylbis (azanediyl))bis (benzoyl))bis (azanediyl))bis (benzoyl))bis(azanediyl)) bis (naphthalene-1,3,6-trisulfonate)]
IC50 at 48 h [1]: > 100 µM
Mean (Blank 450) (MCF-7 cells [2]; 1 uM): 1.224
Fold (mean) (MCF-7 cells [2]; 1 uM): 1.05
Blank 450 (MCF-7 cells [2]; 1 uM): 1.234 and 1.224 and 1.182 and 1.256
Fold (MCF-7 cells [2]; 1 uM): 1.059 and 1.050 and 1.014 and 1.078
Mean (Blank 450) (MCF-7 cells [2]; 5 uM): 1.176
Fold (mean) (MCF-7 cells [2]; 5 uM): 1.01
Blank 450 (MCF-7 cells [2]; 5 uM): 1.176 and 1.214 and 1.141 and 1.173
Fold (MCF-7 cells [2]; 5 uM): 1.009 and 1.042 and 0.979 and 1.007
Mean (Blank 450) (MCF-7 cells [2]; 10 uM): 1.160
Fold (mean) (MCF-7 cells [2]; 10 uM): 1.00
Blank 450 (MCF-7 cells [2]; 10 uM): 1.108 and 1.161 and 1.207 and 1.165
Fold (MCF-7 cells [2]; 10 uM): 0.951 and 0.996 and 1.036 and 1.000
Mean (Blank 450) (MCF-7 cells [2]; 50 uM): 1.139
Fold (mean) (MCF-7 cells [2]; 50 uM): 0.98
Blank 450 (MCF-7 cells [2]; 50 uM): 1.184 and 1.149 and 1.053 and 1.169
Fold (MCF-7 cells [2]; 50 uM): 1.016 and 0.986 and 0.904 and 1.003
Mean (Blank 450) (MCF-7 cells [2]; 100 uM): 1.057
Fold (mean) (MCF-7 cells [2]; 100 uM): 0.91
Blank 450 (MCF-7 cells [2]; 100 uM): 1.098 and 1.004 and 1.043 and 1.081
Fold (MCF-7 cells [2]; 100 uM): 0.942 and 0.862 and 0.895 and 0.928
cytotoxicity compared with suramin (MCF-7 cells [2]): less toxic
Kd (FGF1): 15.5 µM
stability in solution (1H NMR) [3]: remarkably stable
IC50 at 48 h [4]: 653.4 ± 2.31 µM

O=C(Nc1ccc(C(=O)Nc2ccc(C(=O)Nc3cccc4cc(S(=O)(=O)O)ccc34)cc2)cc1)Nc1ccc(C(=O)Nc2ccc(C(=O)Nc3cccc4cc(S(=O)(=O)O)ccc34)cc2)cc1 [Compound 17, Sodium 5,5'-((4,4'-((4,4'-(carbonylbis (azanediyl))bis (benzoyl))bis (azanediyl))bis (benzoyl))bis(azanediyl)) bis (naphthalene-2-sulfonate)]
IC50 at 48 h [1]: > 100 µM
Mean (Blank 450) (MCF-7 cells [2]; 0.5 uM): 0.233
Fold (mean) (MCF-7 cells [2]; 0.5 uM): 1.04
Blank 450 (MCF-7 cells [2]; 0.5 uM): 0.241 and 0.231 and 0.216 and 0.243
Fold (MCF-7 cells [2]; 0.5 uM): 1.082 and 1.037 and 0.970 and 1.091
Mean (Blank 450) (MCF-7 cells [2]; 1 uM): 0.226
Fold (mean) (MCF-7 cells [2]; 1 uM): 1.01
Blank 450 (MCF-7 cells [2]; 1 uM): 0.235 and 0.232 and 0.211 and 0.225
Fold (MCF-7 cells [2]; 1 uM): 1.055 and 1.042 and 0.947 and 1.010
Mean (Blank 450) (MCF-7 cells [2]; 5 uM): 0.222
Fold (mean) (MCF-7 cells [2]; 5 uM): 1.00
Blank 450 (MCF-7 cells [2]; 5 uM): 0.201 and 0.215 and 0.233 and 0.239
Fold (MCF-7 cells [2]; 5 uM): 0.902 and 0.965 and 1.046 and 1.073
Mean (Blank 450) (MCF-7 cells [2]; 10 uM): 0.220
Fold (mean) (MCF-7 cells [2]; 10 uM): 0.99
Blank 450 (MCF-7 cells [2]; 10 uM): 0.218 and 0.227 and 0.225 and 0.209
Fold (MCF-7 cells [2]; 10 uM): 0.979 and 1.019 and 1.010 and 0.938
Mean (Blank 450) (MCF-7 cells [2]; 100 uM): 0.208
Fold (mean) (MCF-7 cells [2]; 100 uM): 0.93
Blank 450 (MCF-7 cells [2]; 100 uM): 0.197 and 0.209 and 0.218 and 0.206
Fold (MCF-7 cells [2]; 100 uM): 0.884 and 0.938 and 0.979 and 0.925
cytotoxicity compared with suramin (MCF-7 cells [2]): less toxic
Kd (FGF1): 10.1 µM
effect on FGF1-stimulated cell proliferation (MCF-7 cells [5]): more potent inhibitory effects
